Drawing on patent US20250332300A1 (priority 2024, published 2025), this text covers Kd and IC50 for seven compounds.

Structures can show the parent of a compound that is named as a salt. Where two headings read alike, the source gives them in different places. Starred links: 1 amine or outer side, 2 acyl side, 3 side chain; linkers in the order of their positions; H or OH if unused. Positions of bridges follow the written chain, without caps; N, C: chain ends. Non-standard residues stand in square brackets, D forms with d. Residues, ends and D or L forms follow the SMILES beside them. Nle(4-yne,6-yl) = O=C([C@H](CC#CC[*:3])N[*:1])[*:2]; Trp(5-OH) = N[C@@H](Cc1c[nH]c2ccc(O)cc12)C(=O)O; NMePhe(4-F) = CN[C@@H](Cc1ccc(F)cc1)C(=O)O; Lys(N3) = [N-]=[N+]=NCCCC[C@H](N)C(=O)O; NMehPhe = CN[C@@H](CCc1ccccc1)C(=O)O; NMeE = CN[C@@H](CCC(=O)O)C(=O)O; Aad = N[C@@H](CCCC(=O)O)C(=O)O; Gly(cPr) = N[C@H](C(=O)O)C1CC1; NMeK = CN[C@@H](CCCCN)C(=O)O; NMeDap = CN[C@@H](CN)C(=O)O; NMeC = CN[C@@H](CS)C(=O)O; NMeS = CN[C@@H](CO)C(=O)O; Dap = NC[C@H](N)C(=O)O

The term Kd denotes the equilibrium constant for the complex coming apart. As usually defined, the IC50 is the concentration that inhibits the measured activity by half.

Holding throughout (type): binding
The target in assay [1] is T1, human HER2 (23-652) (Homo sapiens, UniProt P04626). The experiment in a line: Surface plasmon resonance (SPR) for assessment of peptide affinity, human HER2. Also noted: towards human HER2 (23-652) and mouse HER2 (23-653); made in house. The gist of the method: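 Binding kinetics fitted from sensorgrams with 280 s peptide association then 3000 s dissociation (30 uL/min), using HER2 (23-652) either directly immobilized (SA/CM5) or anti-Fc-captured; 3 M magnesium chloride used for regeneration.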

For assay [2], the target named is T2, mouse HER2 (23-653) (Mus musculus, UniProt P70424). Put plainly: Surface plasmon resonance (SPR) for assessment of peptide affinity, mouse HER2. Also noted: mouse HER2 (23-653) using a Cy5 labeled peptide as a probe; made in house. An excerpt:
Each protein was immobilized either onto a SA sensorchip (Cytiva, BR-1005-31) or CM5 sensorchip (Cytiva, BR-1005-30) to a density of 800-2000 RU.
(In general: Surface plasmon resonance follows binding to a sensor surface in real time, without labels.)

Assay [3] concerns the target T1, human HER2 (23-652). The experiment in a line: TR-FRET competition assay for peptide potency, human HER2. Also on record: towards human HER2 (23-652) and mouse HER2 (23-653); made in house; host or cells: mammalian cells. (In general: In TR-FRET formats the signal depends on donor and acceptor labels being close together.)
In assay [4] the target is T2, mouse HER2 (23-653). Put plainly: TR-FRET competition assay for peptide potency, mouse HER2. Also noted: mouse HER2 (23-653) using a Cy5 labeled peptide as a probe; made in house; host or cells: mammalian cells.
The mark [5] stands for this setting: SPR, human HER2 extracellular domain, 25° C., 1:1 binding model, read-out: huHER2-SPR-ONC KD.
[6] abbreviates: SPR, mouse HER2 extracellular domain, 25° C., 1:1 binding model, read-out: moHER2-SPR-ONC KD.
Setting [7] is: TR-FRET competition with Cy5 labeled peptide probe, 0.1 nM mouse HER2, 24 h incubation, read-out: moHER2 TR-FRET IC50.
Where [8] appears, read: huHER2 TR-FRET IC50, TR-FRET competition with Cy5 labeled peptide probe, 0.1 nM human HER2, 24 h incubation.
Where [9] appears, read: moHER2 TR-FRET IC50, TR-FRET competition with Cy5 labeled peptide probe, 0.1 nM mouse HER2, 24 h incubation.
The mark [10] stands for this setting: huHER2 TR-FRET IC50, recalculated value achieved after further repetition, value in parentheses (**): recalculated after further repetition.

As to `CC(=O)NCCCC[C@H]1C(=O)N[C@@H](Cc2c[nH]c3ccc(O)cc23)C(=O)N[C@@H](Cc2c[nH]c3ccccc23)C(=O)N[C@@H](C2CC2)C(=O)N(C)[C@H](C(=O)N(C)[C@@H](Cc2ccc(F)cc2)C(=O)N[C@@H](CCCCN=[N+]=[N-])C(N)=O)CNC(=O)CCC[C@H](NC(C)=O)C(=O)N[C@@H](Cc2ccc(O)cc2)C(=O)N[C@@H](CO)C(=O)N(C)[C@@H](CCc2ccccc2)C(=O)N1C` [Example A74] (Ac-[Aad]YS[NMehPhe][NMeK](Ac)[Trp(5-OH)]W[Gly(cPr)][NMeDap][NMePhe(4-F)][Lys(N3)]-NH2; lactam 1-9), the Kd on human HER2 (23-652) [1] (setting [5]) and on mouse HER2 (23-653) [2] (setting [6]) was 0.1 nM throughout. In addition, the IC50 on human HER2 (23-652) [3] (read-out: huHER2 TR-FRET IC50) was 0.1 nM; at mouse HER2 (23-653) [4] (setting [7]) it was 0.5 nM; at mouse HER2 (23-653) [4] (value in parentheses (**): recalculated after further repetition, read-out: moHER2 TR-FRET IC50, recalculated value achieved after further repetition) it was 0.3 nM.
With `CC(=O)NCCCC[C@H]1C(=O)N[C@@H](Cc2c[nH]c3ccc(O)cc23)C(=O)N[C@@H](Cc2c[nH]c3ccccc23)C(=O)N[C@@H](C2CC2)C(=O)N(C)[C@H](C(=O)N(C)[C@@H](Cc2ccc(F)cc2)C(=O)N[C@@H](CCCCN)C(N)=O)CNC(=O)CCC[C@H](NC(C)=O)C(=O)N[C@@H](Cc2ccc(O)cc2)C(=O)N[C@@H](CO)C(=O)N(C)[C@@H](CCc2ccccc2)C(=O)N1C` [Example A40, TFA salt], the Kd on human HER2 (23-652) [1] and at mouse HER2 (23-653) [2] (setting [6]) was < 0.1 nM in each case. Also, the IC50 on human HER2 (23-652) [3] (setting [8]) is < 0.1 nM; at mouse HER2 (23-653) [4] (setting [7]) it was 0.2 nM.
In the case of `CN1C(=O)[C@H](CO)NC(=O)[C@H](Cc2ccc(O)cc2)NC(=O)[C@@H](N)CCCC(=O)NC[C@@H](C(=O)N(C)[C@@H](Cc2ccc(F)cc2)C(N)=O)N(C)C(=O)[C@H](C2CC2)NC(=O)[C@H](Cc2c[nH]c3ccccc23)NC(=O)[C@H](Cc2c[nH]c3ccc(O)cc23)NC(=O)[C@H](CO)N(C)C(=O)[C@@H]1CCc1ccccc1` [Example A36, (3S,6S,9S,12S,15S,18S,21S,24S,27S)-9-((1H-indol-3-yl)methyl)-27-amino-N-((S)-1-amino-3-(4-fluorophenyl)-1-oxopropan-2-yl)-6-cyclopropyl-12-((5-hydroxy-1H-indol-3-yl)methyl)-24-(4-hydroxybenzyl)-15,21-bis(hydroxymethyl)-N,4,16,19-tetramethyl-5,8,11,14,17,20,23,26,31-nonaoxo-18-phenethyl-1,4,7,10,13,16,19,22,25-nonaazacyclohentriacontane-3-carboxamide TFA salt] (H-[Aad]YS[NMehPhe][NMeS][Trp(5-OH)]W[Gly(cPr)][NMeDap][NMePhe(4-F)]-NH2; lactam 1-9), the dissociation constant (Kd) at human HER2 (23-652) [1] was 38 nM; at mouse HER2 (23-653) [2] (setting [6]), 34 nM. For the same compound, the IC50 at human HER2 (23-652) [3] (setting [8]) stood at 52 nM; at mouse HER2 (23-653) [4] (setting [7]), 102 nM.
As to `CN1C(=O)[C@H](Cc2ccc(O)cc2)NC(=O)[C@@H](N)CCC(=O)NC[C@@H](C(=O)N(C)[C@@H](Cc2ccc(F)cc2)C(N)=O)N(C)C(=O)[C@H](C2CC2)NC(=O)[C@H](Cc2c[nH]c3ccccc23)NC(=O)[C@H](Cc2c[nH]c3ccc(O)cc23)NC(=O)[C@H](CO)N(C)C(=O)[C@H](CCc2ccccc2)N(C)C(=O)[C@@H]1CO` [Example A38, (3S,6S,9S,12S,15S,18S,21S,24S,27S)-9-((1H-indol-3-yl)methyl)-27-amino-N-((S)-1-amino-3-(4-fluorophenyl)-1-oxopropan-2-yl)-6-cyclopropyl-12-((5-hydroxy-1H-indol-3-yl)methyl)-24-(4-hydroxybenzyl)-15,21-bis(hydroxymethyl)-N,4,16,19,22-pentamethyl-5,8,11,14,17,20,23,26,30-nonaoxo-18-phenethyl-1,4,7,10,13,16,19,22,25-nonaazacyclotriacontane-3-carboxamide TFA salt] (H-EY[NMeS][NMehPhe][NMeS][Trp(5-OH)]W[Gly(cPr)][NMeDap][NMePhe(4-F)]-NH2; lactam 1-9), the dissociation constant Kd on human HER2 (23-652) [1] came out at 46 nM; at mouse HER2 (23-653) [2], 67 nM. The values for the IC50 on human HER2 (23-652) [3] (setting [8]) and at mouse HER2 (23-653) [4] (setting [9]) were 93 nM and 206 nM, respectively.
On to `CN1C(=O)[C@H](CO)NC(=O)[C@H](Cc2ccc(O)cc2)NC(=O)[C@@H](N)CC#CCSC[C@@H](C(=O)N(C)[C@@H](Cc2ccc(F)cc2)C(N)=O)N(C)C(=O)[C@H](C2CC2)NC(=O)[C@H](Cc2c[nH]c3ccccc23)NC(=O)[C@H](Cc2c[nH]c3ccc(O)cc23)NC(=O)[C@H](CO)N(C)C(=O)[C@@H]1CCc1ccccc1` [Example A52, (3R,6S,9S,12S,15S,18S,21S,24S,27S)-9-((1H-indol-3-yl)methyl)-27-amino-N—((S)-1-amino-3-(4-fluorophenyl)-1-oxopropan-2-yl)-6-cyclopropyl-12-((5-hydroxy-1H-indol-3-yl)methyl)-24-(4-hydroxybenzyl)-15,21-bis(hydroxymethyl)-N,4,16,19-tetramethyl-5,8,11,14,17,20,23,26-octaoxo-18-phenethyl-1-thia-4,7,10,13,16,19,22,25-octaazacyclohentriacont-29-yne-3-carboxamide TFA salt] (H-[Nle(4-yne,6-yl)]YS[NMehPhe][NMeS][Trp(5-OH)]W[Gly(cPr)][NMeC][NMePhe(4-F)]-NH2; thioether 1-9), for which the Kd on human HER2 (23-652) [1] was found to be 997 nM; on mouse HER2 (23-653) [2] (setting [6]) it was 570 nM. For the same compound, the IC50 on human HER2 (23-652) [3] (setting [8]) was 427 nM; on human HER2 (23-652) [3] (setting [10]) it was 567 nM; on mouse HER2 (23-653) [4] (setting [7]) it was > 1000 nM.
On to `CC(=O)N[C@H]1CCC(=O)NC[C@@H](C(=O)N(C)[C@@H](Cc2ccc(F)cc2)C(N)=O)N(C)C(=O)[C@H](C2CC2)NC(=O)[C@H](Cc2c[nH]c3ccccc23)NC(=O)[C@H](Cc2cnn3ccccc23)NC(=O)[C@H](CO)N(C)C(=O)[C@H](CCc2ccccc2)N(C)C(=O)[C@H](CO)NC(=O)[C@H](Cc2ccc(O)cc2)NC1=O` [Example A16, (3S,6S,9S,12S,15S,18S,21S,24S,27S)-9-((1H-indol-3-yl)methyl)-27-acetamido-N-((S)-1-amino-3-(4-fluorophenyl)-1-oxopropan-2-yl)-6-cyclopropyl-24-(4-hydroxybenzyl)-15,21-bis(hydroxymethyl)-N,4,16,19-tetramethyl-5,8,11,14,17,20,23,26,30-nonaoxo-18-phenethyl-12-(pyrazolo[1,5-a]pyridin-3-ylmethyl)-1,4,7,10,13,16,19,22,25-nonaazacyclotriacontane-3-carboxamide], for which the Kd on human HER2 (23-652) [1] (setting [5]) and on mouse HER2 (23-653) [2] (setting [6]) was > 6000 nM throughout. Moreover, the IC50 at human HER2 (23-652) [3] (read-out: huHER2 TR-FRET IC50) and on mouse HER2 (23-653) [4] (setting [7]) was > 1000 nM throughout.
Regarding `CN1C(=O)[C@H](CO)NC(=O)[C@H](Cc2ccc(O)cc2)NC(=O)[C@@H](N)CNC(=O)CC[C@@H](C(=O)N(C)[C@@H](Cc2ccc(F)cc2)C(N)=O)N(C)C(=O)[C@H](C2CC2)NC(=O)[C@H](Cc2c[nH]c3ccccc23)NC(=O)[C@H](Cc2c[nH]c3ccc(O)cc23)NC(=O)[C@H](CO)N(C)C(=O)[C@@H]1CCc1ccccc1` [Example A34, (3S,6S,9S,12S,15S,18S,21S,24S,30S)-6-((1H-indol-3-yl)methyl)-24-amino-N-((S)-1-amino-3-(4-fluorophenyl)-1-oxopropan-2-yl)-3-cyclopropyl-9-((5-hydroxy-1H-indol-3-yl)methyl)-21-(4-hydroxybenzyl)-12,18-bis(hydroxymethyl)-N,1,13,16-tetramethyl-2,5,8,11,14,17,20,23,27-nonaoxo-15-phenethyl-1,4,7,10,13,16,19,22,26-nonaazacyclotriacontane-30-carboxamide TFA salt] (H-[Dap]YS[NMehPhe][NMeS][Trp(5-OH)]W[Gly(cPr)][NMeE][NMePhe(4-F)]-NH2; lactam 1-9), the Kd turned out to be 68 nM on human HER2 (23-652) [1] and 64 nM on mouse HER2 (23-653) [2]. Moreover, the IC50 on human HER2 (23-652) [3] (setting [8]) was 158 nM; on human HER2 (23-652) [3] (setting [10]), 118 nM; at mouse HER2 (23-653) [4] (setting [9]) it was 296 nM; at mouse HER2 (23-653) [4] (moHER2 TR-FRET IC50, recalculated value achieved after further repetition, value in parentheses (**): recalculated after further repetition), 175 nM.
